In ChEMBL document CHEMBL1275542, “Characterization of TolC efflux pump proteins from Pasteurella multocida” (2008) one finds MIC and Ratio data, which are given here for eleven compounds.

Assay type in all cases: functional
Test [1] has as its system Pasteurella multocida. The test is described as follows: Antibacterial activity against Pasteurella multocida pm0527 after 24 hrs by broth dilution method.
In test [2] the test system is Pasteurella multocida. Put plainly: Ratio of MIC for Pasteurella multocida AL435 to MIC for TolC deficient Pasteurella multocida pm1980.
Test [3] has as its system Pasteurella multocida. Put plainly: Ratio of MIC for Pasteurella multocida AL435 to MIC for TolC deficient Pasteurella multocida pm0527.
The test system of test [4] is Pasteurella multocida. The test is described as follows: Antibacterial activity against TolC deficient Pasteurella multocida pm1980 after 24 hrs by broth dilution method. A general note: Broth dilution looks for growth in wells or tubes with falling amounts of substance.
Test [5] deals with Pasteurella multocida. Put plainly: Antibacterial activity against Pasteurella multocida AL435 after 24 hrs by broth dilution method.
Test [6] concerns Pasteurella multocida. The test is described as follows: Antibacterial activity against Pasteurella multocida pm1980 after 24 hrs by broth dilution method.
In test [7] the test system is Pasteurella multocida. Put plainly: Antibacterial activity against TolC deficient Pasteurella multocida pm0527 after 24 hrs by broth dilution method.

By MIC is commonly meant the lowest concentration that inhibits growth of the organism. Lower therefore signals inhibition by little substance.

≈ marks a conversion by molar mass, not a printed value.

As to `CCC[C@@H]1C[C@@H](C(=O)N[C@@H]([C@H]2O[C@H](SC)[C@H](O)[C@@H](O)[C@H]2O)[C@@H](C)O)N(C)C1` [LINCOMYCIN], the MIC with Pasteurella multocida [1] (pm0527, 24 h) was 25 µg/mL (≈ 61.5 µM); with Pasteurella multocida [4] (pm1980, 24 h) it was 100 µg/mL (≈ 246 µM); against Pasteurella multocida [5] (AL435, 24 h), 100 µg/mL (≈ 246 µM); in the test with Pasteurella multocida [6] (pm1980, 24 h) it was 50 µg/mL (≈ 123 µM); in the test with Pasteurella multocida [7] (pm0527, 24 h), 25 µg/mL (≈ 61.5 µM). Besides, the Ratio in the test with Pasteurella multocida [2] was determined as 1; in the test with Pasteurella multocida [3], 4.

Turning to `CCn1cc(C(=O)O)c(=O)c2ccc(C)nc21` [NALIDIXIC ACID], the MIC with Pasteurella multocida [1] (pm0527, 24 h) turned out to be 25 µg/mL (≈ 108 µM); against Pasteurella multocida [4] (pm1980, 24 h), 25 µg/mL (≈ 108 µM); in the test on Pasteurella multocida [5] (AL435, 24 h), 25 µg/mL (≈ 108 µM); with Pasteurella multocida [6] (pm1980, 24 h), 12.5 µg/mL (≈ 53.8 µM); against Pasteurella multocida [7] (pm0527, 24 h), 25 µg/mL (≈ 108 µM). Besides, the Ratio with Pasteurella multocida [2] and in the test on Pasteurella multocida [3] was 1 in each case.

With `CO[C@@H]1[C@@H](OC(N)=O)[C@@H](O)[C@H](Oc2ccc3c(O)c(NC(=O)c4ccc(O)c(CC=C(C)C)c4)c(=O)oc3c2C)OC1(C)C` [NOVOBIOCIN], the MIC in the test with Pasteurella multocida [1] (pm0527, 24 h) amounted to 40 µg/mL (≈ 65.3 µM); against Pasteurella multocida [4] (pm1980, 24 h) it was 20 µg/mL (≈ 32.6 µM); against Pasteurella multocida [5] (AL435, 24 h) it was 40 µg/mL (≈ 65.3 µM); against Pasteurella multocida [6] (pm1980, 24 h), 40 µg/mL (≈ 65.3 µM); in the test on Pasteurella multocida [7] (pm0527, 24 h) it was 2.5 µg/mL (≈ 4.08 µM). For the same compound, the figures for the Ratio with Pasteurella multocida [2] and in the test with Pasteurella multocida [3] were 2 and 16, respectively.

With `CO[C@H]1/C=C/O[C@@]2(C)Oc3c(C)c(O)c4c(O)c(c(/C=N/N5CCN(C)CC5)c(O)c4c3C2=O)NC(=O)/C(C)=C\C=C\[C@H](C)[C@H](O)[C@@H](C)[C@@H](O)[C@@H](C)[C@H](OC(C)=O)[C@@H]1C` [RIFAMPIN], the minimum inhibitory concentration (MIC) in the test on Pasteurella multocida [1] (pm0527, 24 h) was 0.2 µg/mL (≈ 0.243 µM); in the test with Pasteurella multocida [4] (pm1980, 24 h), 0.78 µg/mL (≈ 0.948 µM); against Pasteurella multocida [5] (AL435, 24 h) it was 50 µg/mL (≈ 60.8 µM); against Pasteurella multocida [6] (pm1980, 24 h) it was 0.78 µg/mL (≈ 0.948 µM); with Pasteurella multocida [7] (pm0527, 24 h), 0.1 µg/mL (≈ 0.122 µM). The Ratio in the test on Pasteurella multocida [2] is 64; in the test on Pasteurella multocida [3] it was 512.

In the case of `Nc1ccc(S(=O)(=O)Nc2nccs2)cc1` [SULFATHIAZOLE], the MIC against Pasteurella multocida [1] (pm0527, 24 h) was 1250 µg/mL (≈ 4900 µM); in the test with Pasteurella multocida [4] (pm1980, 24 h), 2500 µg/mL (≈ 9790 µM); in the test with Pasteurella multocida [5] (AL435, 24 h), 2500 µg/mL (≈ 9790 µM); in the test on Pasteurella multocida [6] (pm1980, 24 h) it was 2500 µg/mL (≈ 9790 µM); against Pasteurella multocida [7] (pm0527, 24 h), 625 µg/mL (≈ 2450 µM). The Ratio is reported as 1 in the test with Pasteurella multocida [2] and 4 in the test with Pasteurella multocida [3].

On to `COc1cc(Cc2cnc(N)nc2N)cc(OC)c1OC` [TRIMETHOPRIM], for which the MIC in the test on Pasteurella multocida [1] (pm0527, 24 h) was 0.5 µg/mL (≈ 1.72 µM); against Pasteurella multocida [4] (pm1980, 24 h), 2 µg/mL (≈ 6.89 µM); against Pasteurella multocida [5] (AL435, 24 h) it was 8 µg/mL (≈ 27.6 µM); against Pasteurella multocida [6] (pm1980, 24 h), 1 µg/mL (≈ 3.44 µM); against Pasteurella multocida [7] (pm0527, 24 h), 0.25 µg/mL (≈ 0.861 µM). The values for the Ratio with Pasteurella multocida [2] and with Pasteurella multocida [3] were 4 and 32, respectively.

On to `CN[C@H](CC(C)C)C(=O)N[C@H]1C(=O)N[C@@H](CC(N)=O)C(=O)N[C@H]2C(=O)N[C@H]3C(=O)N[C@H](C(=O)N[C@H](C(=O)O)c4cc(O)cc(O)c4-c4cc3ccc4O)[C@H](O)c3ccc(c(Cl)c3)Oc3cc2cc(c3O[C@@H]2O[C@H](CO)[C@@H](O)[C@H](O)[C@H]2O[C@H]2C[C@](C)(N)[C@H](O)[C@H](C)O2)Oc2ccc(cc2Cl)[C@H]1O` [VANCOMYCIN], for which the MIC stood at 250 µg/mL (≈ 173 µM) against Pasteurella multocida [1] (pm0527, 24 h); 250 µg/mL (≈ 173 µM) in the test with Pasteurella multocida [4] (pm1980, 24 h); 1000 µg/mL (≈ 690 µM) against Pasteurella multocida [5] (AL435, 24 h); 250 µg/mL (≈ 173 µM) against Pasteurella multocida [6] (pm1980, 24 h); 125 µg/mL (≈ 86.3 µM) against Pasteurella multocida [7] (pm0527, 24 h). The Ratio was 4 with Pasteurella multocida [2] and 8 in the test with Pasteurella multocida [3].

On to GENTAMICIN, for which the MIC was 20 µg/mL against Pasteurella multocida [1]; 40 µg/mL in the test on Pasteurella multocida [4]; 20 µg/mL with Pasteurella multocida [5]; 40 µg/mL in the test with Pasteurella multocida [6]; 5 µg/mL against Pasteurella multocida [7]. In addition, the Ratio amounted to 0.5 in the test on Pasteurella multocida [2] and 4 with Pasteurella multocida [3].

Turning to NEOMYCIN SULFATE, the minimum inhibitory concentration (MIC) in the test with Pasteurella multocida [1] stood at 125 µg/mL; in the test on Pasteurella multocida [4], 1000 µg/mL; in the test on Pasteurella multocida [5], 125 µg/mL; against Pasteurella multocida [6], 500 µg/mL; against Pasteurella multocida [7], 125 µg/mL. Further, the Ratio is 0.125 in the test on Pasteurella multocida [2] and 1 with Pasteurella multocida [3].

Take POLYMYXIN B: the MIC in the test on Pasteurella multocida [1] amounted to 6.25 µg/mL; against Pasteurella multocida [4], 12.5 µg/mL; with Pasteurella multocida [5], 12.5 µg/mL; with Pasteurella multocida [6] it was 6.25 µg/mL; in the test with Pasteurella multocida [7], 3.12 µg/mL. Moreover, the Ratio in the test on Pasteurella multocida [2] was found to be 1; in the test with Pasteurella multocida [3] it was 4.

With SPIRAMYCIN, the MIC with Pasteurella multocida [1] is 25 µg/mL; in the test with Pasteurella multocida [4], 25 µg/mL; against Pasteurella multocida [5], 25 µg/mL; against Pasteurella multocida [6], 25 µg/mL; with Pasteurella multocida [7], 12.5 µg/mL. The Ratio in the test on Pasteurella multocida [2] was 1; in the test with Pasteurella multocida [3], 2.
